Results from the supplement of paper PMC3974653.
Where a name gives a salt, the structure may show the parent alone.

System: MTT (mouse pheochromocytoma)
Experiment: IC50 of cell viability (ATP content)
Conditions: (24 or 48 h)
Procedure, shortened: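 Library compounds in DMSO (23 nl by pintool, 8 concentrations, final 0.5 nM to 46 µM) were applied for 24 or 48 hrs to MTT mouse pheochromocytoma cells that had been cultured overnight at 37°C, 5% CO2 in white 1536-well plates. Cell viability was measured by CellTiter-Glo ATP luminescence, read after 15 minutes, with positive-control wells set at 100% and DMSO wells at 0%. A four-parameter logistic fit of the normalised signals yielded the IC50.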

CC(=O)N1CC(O)CC1C(=O)O (stereo not drawn) [OXACEPROLUM]
IC50 of cell viability: > 46 µM

O=C1[O][Pt]2([NH]C3CCCCC3[NH]2)[O]C1=O (stereo not drawn) [OXALIPLATIN]
IC50 of cell viability: > 46 µM

NC1CCCCC1N.O=C([O-])C(=O)[O-].[Pt+2] (stereo not drawn) [OXALIPLATIN]
IC50 of cell viability: > 46 µM

CC(CC(=O)O)(CC(=O)O)C(=O)O.CCN(CC)CCOCCOC(=O)C(CC)(CC)c1ccccc1 [OXELADIN TANNATE]
IC50 of cell viability: > 46 µM

NC(C(=O)O)c1ccc(O)cc1 (stereo not drawn) [OXFENICINUM]
IC50 of cell viability: > 46 µM

Clc1ccc(CO/N=C(\Cn2ccnc2)c2ccc(Cl)cc2Cl)c(Cl)c1.O=[N+]([O-])O [OXICONAZOLE NITRATE]
IC50 of cell viability: > 46 µM

Cl.NCCc1cc(O)c(O)cc1O [OXIDOPAMINE HYDROCHLORIDE]
IC50 of cell viability: > 46 µM

CCN1\C=C(\C(O)=O)C(=O)C2=C1C=C3OCOC3=C2 [OXOLINIC ACID]
IC50 of cell viability: > 46 µM

CC(CN(C)C)CN1c2ccccc2[S+](=O)([O-])c2ccccc21 (stereo not drawn) [OXOMEMAZINE HCl]
IC50 of cell viability: > 46 µM

Cn1c(=O)c2[nH]cnc2n(C)c1=O [OXTRIPHYLLINE]
IC50 of cell viability: > 46 µM

CC1=CC(=C(O)C(=C1C\C2=N\CCN2)C)C(C)(C)C [OXYMETAZOLINE]
IC50 of cell viability: > 46 µM

Cl.CN\1CCC\N=C1COC(=O)C(O)(C2CCCCC2)C3=CC=CC=C3 (stereo not drawn) [OXYPHENCYCLIMINE HYDROCHLORIDE]
IC50 of cell viability: > 46 µM

CC[N+](C)(CC)CCOC(=O)C(O)(c1ccccc1)C1CCCCC1 (stereo not drawn) [OXYPHENONIUM BROMIDE]
IC50 of cell viability: > 46 µM

CN(C)C1C(=O)C(C(N)=O)C(=O)C2(O)C(=O)C3C(=O)c4c(O)cccc4C(C)(O)C3C(O)C12 (stereo not drawn) [OXYTETRACYCLINE]
IC50 of cell viability: > 46 µM

CCC(C)C1NC(=O)C(Cc2ccc(O)cc2)NC(=O)C(N)CSSCC(C(=O)N2CCCC2C(=O)NC(CC(C)C)C(=O)NCC(N)=O)NC(=O)C(CC(N)=O)NC(=O)C(CCC(N)=O)NC1=O (stereo not drawn) [OXYTOCIN]
IC50 of cell viability: > 46 µM

CC1CC(=O)N/N=C1/C2=CC=C(NCC(C)(C)NCC(O)COC3=C(C=CC(=C3)Cl)C#N)C=C2 (stereo not drawn) [Oberadilol]
IC50 of cell viability: > 46 µM

CCCCC(CC)COC(=O)/C=C/c1ccc(OC)cc1 (stereo not drawn) [Octinoxate]
IC50 of cell viability: > 46 µM

CCCCC(CC)COC(=O)c1ccccc1O (stereo not drawn) [Octisalate]
IC50 of cell viability: > 46 µM

CCCCC(CC)COC(=O)C(C#N)=C(c1ccccc1)c1ccccc1 (stereo not drawn) [Octocrylene]
IC50 of cell viability: > 46 µM

C[C@@H](O)[C@@H]1NC(=O)[C@H](CCCCN)NC(=O)[C@@H](Cc2c[nH]c3ccccc23)NC(=O)[C@H](Cc2ccccc2)NC(=O)[C@@H](NC(=O)[C@H](N)Cc2ccccc2)CSSC[C@@H](C(=O)N[C@H](CO)[C@@H](C)O)NC1=O [Octreotide]
IC50 of cell viability: > 46 µM

C[C@@H]1COC2=C3N1\C=C(\C(O)=O)C(=O)C3=CC(=C2N4CCN(C)CC4)F [Ofloxacin]
IC50 of cell viability: > 46 µM

CO[C@H]1C[C@H](O[C@@H]2[C@H](C)[C@H](O[C@@H]3O[C@@H](C)C[C@@H](N(C)C)[C@H]3O)[C@H](C)C[C@]3(CO3)C(=O)[C@H](C)[C@H](O)[C@H](C)[C@H](C)OC(=O)[C@@H]2C)O[C@@H](C)[C@H]1O [Oleandomycin phosphate]
IC50 of cell viability: > 46 µM

CCCCCCCC/C=C\CCCCCCCC(=O)O [Oleic acid]
IC50 of cell viability: > 46 µM

CCCCCCCC/C=C\CCCCCCCC(=O)NCc1ccc(O)c(OC)c1 [Olvanil]
IC50 of cell viability: > 46 µM

COc1ccc2[nH]c([S+]([O-])Cc3ncc(C)c(OC)c3C)nc2c1 (stereo not drawn) [Omeprazole]
IC50 of cell viability: > 46 µM

Cc1nccn1C[C@@H]1CCc2c(c3ccccc3n2C)C1=O [Ondansetron Hydrochloride]
IC50 of cell viability: > 46 µM

Cc1nccn1CC1CCc2c(c3ccccc3n2C)C1=O (stereo not drawn) [Ondansetron]
IC50 of cell viability: > 46 µM

COc1ccc(/C=N/NC(=O)c2ccncc2)c(C(=O)O)c1OC [Opiniazida]
IC50 of cell viability: > 46 µM

OCCN1CCN(CCCN2C3=C(C=CC=C3)\C=C/C4=C2C=CC=C4)CC1 [Opipramol HCl]
IC50 of cell viability: > 46 µM

C[C@@H]1CN(c2c(F)c(F)c3c(=O)c(C(=O)O)cn(C4CC4)c3c2F)C[C@H](C)N1 [Orbifloxacin]
IC50 of cell viability: > 46 µM

Cc1ncc([N+](=O)[O-])n1C[C@H](O)CCl [Ornidazole]
IC50 of cell viability: > 46 µM

O=C(O)c1cc(O)nc(O)n1 [Orotic acid]
IC50 of cell viability: > 46 µM

Cc1ccccc1C(OCCN(C)C)c1ccccc1 (stereo not drawn) [Orphenadrine citrate salt]
IC50 of cell viability: > 46 µM

CCCN(CCC)c1c([N+](=O)[O-])cc([S+](N)(=O)[O-])cc1[N+](=O)[O-] [Oryzalin]
IC50 of cell viability: > 46 µM

O=C(Nc1ccc(O)cc1)c1ccccc1O [Osalmid]
IC50 of cell viability: > 46 µM

Cc1onc(-c2ccccc2)c1C(=O)N[C@@H]1C(=O)N2C1SC(C)(C)[C@@H]2C(=O)[O-] (stereo partly drawn) [Oxacillin sodium salt]
IC50 of cell viability: > 46 µM

CCN(CC)CCc1nc(-c2ccccc2)no1.O=C(O)CC(O)(CC(=O)O)C(=O)O [Oxalamine citrate salt]
IC50 of cell viability: > 46 µM

CC(C)NC[C@H]1CCc2cc(CO)c([N+](=O)[O-])cc2N1 [Oxamniquine]
IC50 of cell viability: > 46 µM

O=c1[nH]c2ccccc2n1CCCN1CCN(C(c2ccccc2)c2ccccc2)CC1 [Oxatomide]
IC50 of cell viability: > 46 µM

O=C1Nc2ccc(Cl)cc2C(c2ccccc2)=NC1O (stereo not drawn) [Oxazepam]
IC50 of cell viability: > 46 µM

CC[C@H]1C[C@H]2[C@@H]3CCC/4=C/C(=O)CC[C@@H]4[C@H]3CC[C@]2(C)[C@H]1O [Oxendolone]
IC50 of cell viability: > 46 µM

CN(C(=O)CN(CCO)CC(=O)N(C)C(C)(C)Cc1ccccc1)C(C)(C)Cc1ccccc1 [Oxethazaine]
IC50 of cell viability: > 46 µM

COC(=O)Nc1nc2ccc([S+]([O-])c3ccccc3)cc2[nH]1 (stereo not drawn) [Oxfendazole]
IC50 of cell viability: > 46 µM

NC(=O)CN1CC(O)CC1=O (stereo not drawn) [Oxiracetam]
IC50 of cell viability: > 46 µM

C=CCOc1ccccc1OC[C@H](O)CNC(C)C [Oxprenolol hydrochloride]
IC50 of cell viability: > 46 µM

COc1ccc(C(=O)c2ccccc2)c(O)c1 [Oxybenzone]
IC50 of cell viability: > 46 µM

CCN(CC)CC#CCOC(=O)[C@@](O)(c1ccccc1)C1CCCCC1 [Oxybutynin chloride]
IC50 of cell viability: > 46 µM

C[C@]12C/C(=C/O)C(=O)C[C@@H]1CC[C@@H]1[C@@H]2CC[C@@]2(C)[C@H]1CC[C@]2(C)O [Oxymetholone]
IC50 of cell viability: > 46 µM

COc1cccc(C(=O)CCN[C@@H](C)[C@H](O)c2ccccc2)c1 [Oxyphedrine]
IC50 of cell viability: > 46 µM

CCCC[C@H]1C(=O)N(c2ccccc2)N(c2ccc(O)cc2)C1=O [Oxyphenbutazone]
IC50 of cell viability: > 46 µM

CC(=O)Oc1ccc(C2(c3ccc(OC(C)=O)cc3)C(=O)Nc3ccccc32)cc1 [Oxyphenisatin Acetate]
IC50 of cell viability: > 46 µM

CN(C)[C@H]\1[C@@H]2[C@@H](O)[C@H]3\C(=C(O)/[C@]2(O)C(=O)\C(=C1O)C(N)=O)C(=O)C4=C(C=CC=C4O)[C@@]3(C)O [Oxytetracycline HCl]
IC50 of cell viability: > 46 µM

O=C(O)/C=C\c1ccc(Cn2ccnc2)cc1 [Ozagrel hydrochloride]
IC50 of cell viability: > 46 µM
